Assay results as given in patent EP3505512B1, “QUATERNARY NICOTINAMIDE DERVIATIVES AS PRECURSORS FOR RELEASE OF MNA” (UNIWERSYTET JAGIELLONSKI, priority 2017, dated 2019).

Experiments:
[1] = esterase dependent hydrolysis: incubation in fresh rat plasma, LC-MS/MS determination of parent compound, MNAF and MNA; conditions: for release of intermediate compound MNAF / rate of hydrolysis (property depending on structure): group property, matrix not given; for hydrolysis of parent compound during plasma incubation: fresh rat plasma, 37°C, incubation 120 min
[2] = hydrolytic stability in solution: incubation in PBS buffer, LC-MS/MS determination of parent compound, MNAF and MNA; format: physicochemical; conditions: 37°C, incubation 120 min
Experimental: The invention also concerns the method of releasing N1-methylnicotinamide (MNA), which is characterized by the following steps: pyridine salts derivatives, as defined above, are incubated in a shaking water bath at 37°C for 120 minutes, then samples are taken 1, 5, 15, 30, 60, 90 and 120 minutes after the start of incubation, by taking 50 µL of a sample to which 500 µL of acetonitrile cooled to -20°C was added to interrupt the hydrolysis reaction, then samples were cooled for 20 minutes at 4°C for protein precipitation, and then centrifuged under the following conditions: 4°C, 15,000 x rpm, 15 min, and the supernatant was transferred to separate chromatographic tubes and 5 µL was applied to the chromatographic column. Preferably, when MNA release is studied in PBS buffer - testing hydrolytic stability in solution and/or in rat plasma - additionally testing plasma esterase-dependent hydrolysis.
For that purpose, the studied compounds were incubated: (1) in PBS buffer - testing hydrolytic stability in solution; (2) in rat plasma - testing additionally esterase dependent hydrolysis. Incubation was carried out in a shaking water bath at 37°C. The studied compounds were added to the prepared biological matrix and incubated for 120 min. Samples were collected 1, 5, 15, 30, 60, 90 and 120 min. after the beginning of incubation, by taking 50 µL of a sample to which 500 µL of acetonitrile cooled to -20°C was added to stop the hydrolysis reaction. The samples were cooled for 20 minutes at 4°C in order to precipitate proteins and then centrifuged under the following conditions: 4°C, 15,000 x rpm, 15 min. The supernatant was transferred to separate chromatographic tubes and 5 µL was injected onto chromatographic column.
The analytical system used for determination of MNA and MNAF concentrations consisted of the UltiMate 3000 liquid chromatograph (Dionex, Thermo Scientific) and the Quantum Ultra TSQ mass spectrometer (Thermo Scientific). For chromatographic separation the Aquasil C18 (4.6 x 150 mm, 5 µm, Thermo Scientific) analytical column was used with isocratic mobile phase, a mixture of 0.1% formic acid in acetonitrile and 5mM ammonium formate (80: 20, v/v)) elution ,at the flow rate of 0,8 mL/min. The detection was performed in the selected reaction monitoring (SRM) mode in positive ionization, monitoring the following ion transitions: m/z 137 → 94 (CE=19V) for MNA, m/z 167 → 137 (CE10) for MNAF, m/z 140 → 97 (CE=19V) for MNA-d3 used as internal standard. The parameters of the ion source were as follows: gas pressure 30 psi (sheath gas) and 10 psi (auxiliary gas), ion spray voltage 4500V, H-ESI ison sourse vaporizer temperature 300°C, capillary temperature 300°C, pressure in the collision chamber 1.5 mTorr (argon).

Substance	release of intermediate compound MNAF / rate of hydrolysis (property depending on structure) [1]	hydrolysis of parent compound during plasma incubation [1]	stability in PBS buffer [2]	changes in concentrations of parent compound during incubation in PBS solution [2]
3-(Acetoxymethylcarbamoyl)-1-methylpyridinium iodide [C-2578]	quick release of an intermediate compound MNAF	–	–	–
3-(benzoyloxymethylcarbamoyl)-1-methylpyridinium iodide [C-2648]	quick release of an intermediate compound MNAF	–	–	–
3-(isobutanoyloxymethylcarbamoyl)-1-methylpyridinium iodide [C-2649]	quick release of an intermediate compound MNAF	–	–	–
3-(methoxymethylcarbamoyl)-1-methylpyridinium iodide [C-2823]	hydrolyse very slowly	slow and slight hydrolysis	high stability	No changes in concentrations
3-({[(3,4,5-trimethoxybenzoyl)oxy]methyl}carbamoyl)-1 methylpyridinium iodide [C-2942]	quick release of an intermediate compound MNAF	–	–	–
3-[(2,2-dimethylpropionyl oxymethyl)carbamoyl]-1-methylpyridinium iodide [C-2647]	quick release of an intermediate compound MNAF	–	–	–
3-[(adamanthan-1-carbonyl oxymethyl)carbamoyl]-1-methylpyridinium iodide [C-2808]	hydrolyse very slowly	slow and slight hydrolysis	high stability	No changes in concentrations
iodide [(1-methylpyridine-1-ium-3-carbonyl)amino] methyl-1-methylcyclohexanecarboxylate [C-2959]	quick release of an intermediate compound MNAF	–	–	–
